From publication PMC6934184, “Selective DNA-PKcs inhibition extends the therapeutic index of localized radiotherapy and chemotherapy” (The Journal of Clinical Investigation, 2019)

Molecular target: T1, GRK6 (Homo sapiens, UniProt P43250)
T1 construct: purchased Thermo Fisher Scientific (Life Technologies) SelectScreen
Experiment: SelectScreen Z'LYTE
Type: biochemical
In short: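 Percent values come from Thermo SelectScreen profiling of NU5455, combining activity and binding assays. CSF1R was run in Z'LYTE format at Km app ATP, and CAMK1 in Adapta format with ATP listed at 10.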

T1 sequence (P43250 whole entry): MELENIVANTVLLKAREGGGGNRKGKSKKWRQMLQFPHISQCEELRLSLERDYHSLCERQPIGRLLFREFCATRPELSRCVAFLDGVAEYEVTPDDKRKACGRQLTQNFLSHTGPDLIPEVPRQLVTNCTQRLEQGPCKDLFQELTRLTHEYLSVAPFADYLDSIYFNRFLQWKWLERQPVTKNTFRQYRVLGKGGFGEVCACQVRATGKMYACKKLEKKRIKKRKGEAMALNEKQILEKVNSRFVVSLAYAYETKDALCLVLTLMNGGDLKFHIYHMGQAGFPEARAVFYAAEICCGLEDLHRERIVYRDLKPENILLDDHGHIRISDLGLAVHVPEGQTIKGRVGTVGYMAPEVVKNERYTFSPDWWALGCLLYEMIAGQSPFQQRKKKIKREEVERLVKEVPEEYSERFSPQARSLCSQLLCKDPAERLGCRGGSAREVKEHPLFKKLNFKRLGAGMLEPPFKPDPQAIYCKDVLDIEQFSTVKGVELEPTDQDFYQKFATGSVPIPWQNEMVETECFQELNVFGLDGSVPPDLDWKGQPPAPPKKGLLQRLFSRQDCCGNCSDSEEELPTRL

CN(C(=O)CN1CCOCC1)c1ccc2sc3c(-c4cccc5c(=O)cc(N6CC7CCC(C6)O7)oc45)cccc3c2c1 [NU5455]
inhibition at 1 µM: 3.7%
